Source: patent US20240122865A1, “Methods of Protecting RNA” (Pfizer Inc., priority 2021, published 2024)
pEC50: −log10 of the molar value.

Tests used:
Assay type in all cases: biochemical, Trichoderma atroviride
FgenL model RNA [1] = assay: TapeStation Assay, FgenL model RNA; set-up: Conc. FgenL#1 / Conc. FgenL#2: unit not given here; settings: for % Control N = 1 / % Control N = 2 / % Control Average: FgenL RNA, 20 mM amino acids, 50 mM CAPS pH 11, 50° C. 15 min; for % Control N = 1 / % Control N = 2: vs Time 0; for % Control Average: vs Time 0, Avg N=2; for Conc. FgenL#1 / Conc. FgenL#2: intact FgenL RNA after 15 min at 50° C.; for Conc. FgenL#1: 20 mM amino acids in 50 mM CAPS pH 11, run #1; for Conc. FgenL#2: 20 mM amino acids in 50 mM CAPS pH 11, run #2
Description: (§1) These assays were performed with amino acids and compared to a no-degradation baseline control to gauge degree of protection imparted by the amino acid. Multiple functional assay approaches were used where differing endpoints were measured including a droplet digital PCR (ddPCR) assay where intact RNA sequence was quantitated, a size exclusion base hydrolysis degradation assay that used a size exclusion column to determine the degree of degradation occurring to an mRNA construct, and finally, a TapeStation assay that utilizes capillary electrophoresis and optical detection to measure intact RNA. […] Affinity selection by mass spectrometry (ASMS), native electrospray ionization mass spectrometry (nESI-MS) and nuclear magnetic resonance (NMR) may be used as several complementary approaches to ascertain compound binding to RNA. The latter techniques utilize MS to measure mass of bound compound alone (ASMS), or mass of RNA and bound compound (nESI-MS). The nESI-MS and NMR studies may be conducted to provide direct analytical quantification of resulting complex via measurement of mass (nESI-MS) or chemical shifts (NMR). The ASMS experiment is conducted to determine saturation binding of the compound to RNA where resulting apparent binding constants (KD,App) may be generated. Further descriptions of the functional and binding assays are provided in the section below.
(§2) In principle, samples are loaded to the instrument where electrophoresis separates component RNA's on the basis of mass, and subsequently analyzes these optically as they travel through the capillary.
(§3) RNA samples were diluted to the appropriate concentration to fall within the linear range of detection for the RNA ScreenTape Assay. Model Chi18 or FgenL RNAs were diluted to 50 ng/μL in 50 mM CAPS buffer pH 11. Amino acid stocks were made up in 50 mM CAPS pH 11 and re-adjusted to >pH 11 after solubilization. […] The samples were aliquoted to PCR tubes for each time point (Time 0 or 15 minutes). Degradation reaction: Samples were incubated at 50° C. for 0 to 15 minutes in a thermocycler, removed at the appropriate time point and placed on ice. Time 0 samples remained on ice.

Chi18 model RNA [2] = assay: TapeStation Assay, Chi18 model RNA; set-up: Conc. chi18#1 / Conc. chi18#2: unit not given here; settings: for % Control N = 1 / % Control N = 2 / % Control Avg.: Chi18 RNA, 20 mM amino acids, 50 mM CAPS pH 11, 50° C. 15 min; for % Control N = 1 / % Control N = 2: vs Time 0; for % Control Avg.: vs Time 0, Avg N=2; for Conc. chi18#1 / Conc. chi18#2: intact Chi18 RNA after 15 min at 50° C.; for Conc. chi18#1: 20 mM amino acids in 50 mM CAPS pH 11, run #1; for Conc. chi18#2: 20 mM amino acids in 50 mM CAPS pH 11, run #2
Description: as §1, §2, §3

FgenL mRNA construct = assay: Size Exclusion Base Hydrolysis Degradation Assay, FgenL; settings: 25 mM amino acid; for T0 R1 peak area at 250 nm: FgenL 0.1 mg/mL, 50 mM CAPS, T=0, replicate 1; for T2 Avg, peak area as percentage of T=0 / T2 R1 peak area at 250 nm / T10 Avg, peak area as percentage of T=0 / T10 R1 peak area at 250 nm / T24 Avg, peak area as percentage of T=0 / T24 R1 peak area at 250 nm / T0 Avg, peak area as percentage of T=0: FgenL; for T2 Avg, peak area as percentage of T=0 / T2 R1 peak area at 250 nm / T10 Avg, peak area as percentage of T=0 / T10 R1 peak area at 250 nm / T24 Avg, peak area as percentage of T=0 / T24 R1 peak area at 250 nm: 50 mM CAPS pH 11, room temperature; for T2 Avg, peak area as percentage of T=0 / T2 R1 peak area at 250 nm: 2 hrs; for T2 R1 peak area at 250 nm / T10 R1 peak area at 250 nm / T24 R1 peak area at 250 nm: replicate 1; for T10 Avg, peak area as percentage of T=0 / T10 R1 peak area at 250 nm: 10 hrs; for T24 Avg, peak area as percentage of T=0 / T24 R1 peak area at 250 nm: 24 hrs; for T0 Avg, peak area as percentage of T=0: T=0 (reference)
Description: Basic assay procedure: RNA samples were diluted to 1.0 mg/mL in DNAase/RNAase free water. Amino acids were dissolved in water to a stock solution of 100 mM and a solution of 500 mM CAPS pH 11 was used. The two mRNA constructs tested were FgenL and Chi18. Each individual sample volume was 50 μL. To determine the amount of 1 M NaOH needed to adjust the final pH to 11.0 after the addition of all sample components, the sample volume was increased 100 fold (5 mL), the volume of 1 M NaOH recorded and this value was translated back down to the 50 μL sample volume.
The mRNA and amino acid were allowed to incubate for one hour prior to the addition of CAPS pH 11. All steps of the assay were conducted at room temperature.
Degradation reaction: After the CAPS addition, the samples were injected onto the Waters H-Class UPLC system to record the first timepoint, T=O. This resulting chromatogram was processed by integrating the area of absorbance at 250 nm for the mRNA construct. Immediately following this timepoint, the pH was adjusted to 11. Subsequent time points (2 hrs, 10 hrs, and 24 hrs) recorded the Absorbance Units (peak area) at 250 nm as a percentage of the peak area determined at T=O. Integration of the chromatogram for subsequent timepoints was conducted by analyzing the area of absorbance at 250 nm contained within the same time window in which the peak eluted in T=0 for the 100% intact mRNA.

Chi18 model RNA [3] = assay: Droplet Digital Polymerase Chain Reaction (ddPCR) Assay, Chi18; settings: percent protection, pH 11.0, 30° C., 16 hours, n = 2
Description: (§4) The ddPCR assays measure RNA integrity by converting intact RNA to cDNA by reverse transcription, then performing digital PCR in thousands of nanoliter-sized droplets for each sample. PCR is performed within each droplet, which allows for more sensitive detection of subtle changes in RNA concentration compared to traditional PCR or qPCR. Additionally, primers/probes specific to the 5′ end of the RNA/cDNA transcript(s) are used to assess fragment integrity—e.g. degraded RNA will have fewer 5′ positive droplets. The BioRad QX200 Droplet Digital PCR System was used for the ddPCR workflow.
(§5) Basic assay procedure: RNA samples (Chi18 or FgenL fragments) were diluted to 25 fg/μL or 10 fg/μL, respectively, in 50 mM […] buffer pH 11.0. Amino acid stocks were made up in 50 mM CAPS buffer, pH 11.0 and subsequently re-adjusted to pH 11.0, post solubilization. Amino acid stocks were tested in a dose-response format to determine EC50. An amino acid dilution plate containing a ˜300 mM (or appropriate) top-concentration of amino acid in 50 mM CAPS buffer was serially (half-log) diluted for 10 times. 0.6 μL of this compound dilution plate was spotted into a 96-well PCR plate (Thermo). Sample RNAs were added (6 μL) and incubated with test amino acid as described below.
(§6) Degradation reaction: Treated RNAs were incubated for 16 hours at 30° C. for Chi18 samples or 44° C. for FgenL samples. Upon completion of the degradation reaction, cDNA was made from the intact RNA by Reverse Transcription and ddPCR run for each sample (96 well plates). Positive 5′ droplet values were divided by the total accepted droplet values for each sample and a ratio value generated for each sample.
(§7) EC50 was determined by using a four parameter logistic equation: Y=A+((B−A)/(1+(C/X)D)); where Y is percent protection, X is compound concentration, A and B are minimum and maximum asymptotes, respectively, C is EC50, and D is Hill slope.

FgenL model RNA [4] = settings: percent protection, pH 11.0, 44° C., 16 hours, n = 2
Description: as §4, §5, §6, §7

SMILES | % Control N = 1 (FgenL model RNA [1]) [%] | % Control N = 2 (FgenL model RNA [1]) [%] | % Control Average (FgenL model RNA [1]) [%] | Conc. FgenL#1 (FgenL model RNA [1]) | Conc. FgenL#2 (FgenL model RNA [1]) | % Control N = 1 (Chi18 model RNA [2]) [%] | % Control N = 2 (Chi18 model RNA [2]) [%] | % Control Avg. (Chi18 model RNA [2]) [%] | Conc. chi18#1 (Chi18 model RNA [2]) | Conc. chi18#2 (Chi18 model RNA [2]) | T0 R1 peak area at 250 nm (FgenL mRNA construct) | T2 Avg, peak area as percentage of T=0 (FgenL mRNA construct) [%] | T2 R1 peak area at 250 nm (FgenL mRNA construct) | T10 Avg, peak area as percentage of T=0 (FgenL mRNA construct) [%] | T10 R1 peak area at 250 nm (FgenL mRNA construct) | T24 Avg, peak area as percentage of T=0 (FgenL mRNA construct) [%] | T24 R1 peak area at 250 nm (FgenL mRNA construct) | T0 Avg, peak area as percentage of T=0 (FgenL mRNA construct) [%] | pEC50 (Chi18 model RNA [3]) | pEC50 (FgenL model RNA [4])
N[C@@H](CC(=O)O)C(=O)O [Aspartic acid] | 107.0 | 91.1 | 99.0 | 36.9 | 31.6 | 52.5 | 53.5 | 53.0 | 28 | 28.3 | 17497 | 0.0 | 0 | 0.0 | 0 | 0.0 | 0 | 100.0 | 2.21 | 
CSCC[C@H](N)C(=O)O [Methionine] | 35.4 | 32.6 | 34.0 | 12.2 | 11.3 | 49.7 | 49.7 | 49.7 | 26.5 |  | 15213 | 24.2 | 3658 | 0.0 | 0 | 0.0 | 0 | 100.0 | < 1.52 | < 1.52
N[C@@H](Cc1c[nH]cn1)C(=O)O [Histidine] | 4.2 | 3.7 | 4.0 | 1.46 | 1.3 | 3.0 | 3.2 | 3.1 | 1.58 | 1.68 | 18949 | 34.5 | 8325 | 0.0 | 0 | 0.0 | 0 | 100.0 | < 1.52 | < 1.52
CC(C)C[C@H](N)C(=O)O [Leucine] | 24.3 | 16.9 | 20.6 | 8.37 | 5.85 | 30.8 | 31.9 | 31.4 | 16.4 | 16.9 | 13599 | 27.3 | 4569 | 0.0 | 0 | 0.0 | 0 | 100.0 | < 1.60 | < 1.52
NC(=O)C[C@H](N)C(=O)O [Asparagine] | 21.9 | 15.0 | 18.4 | 7.56 | 5.19 | 21.0 | 26.7 | 23.8 | 11.2 | 14.1 | 14320 | 35.9 | 6791 | 0.0 | 0 | 0.0 | 0 | 100.0 | 2.31 | 
